Measurements taken from patent US4377687A, “Analogs of 1-(2-chloroethyl)-1-nitroso-3-(cycloheyl)-urea substituted by heterocyclic rings or alkyl radicals” (Stiftung Deutsches Krebsforschungszentrum, priority 1978, dated 1983).
Where “and” joins values, the source holds several entries; their conditions need not be identical. Equal values may be shown once. Where a name gives a salt, the structure may show the parent alone. Read-outs that look alike come from different tables or passages of the source.

Legend:
[1] = Water solubility
[2] = Mean animal weight / weight gain after tumor transplantation; format: in vivo, rat (Sprague-Dawley rats); conditions: CP 70 (exp. 1-3), BCNU 25, MeCCNU 45 (exp. 1), picolyl-3-CNU 25, its HCl 25 (exp. 2), morpholino-CNU 28, piperidino-CNU 15 (exp. 3), dimethylmorpholino-CNU 45 mg/kg (exp. 4); for Mean animal weight on day 50: day 50 after tumor transplantation; for Mean animal weight on day 100: day 100 after tumor transplantation
Protocol: (§1) Male Sprague-Dawley rats were used in the experiments. Yoshida sarcome in ascites form was maintained in the same strain of rats by serial intraperitoneal injection of 0,5 ml of ascites fluid.
(§2) 3×10^6 cells were injected into the colon wall in a manner known per se. The chemotherapeutic treatment was carried out on the eighth day after implantation of the tumor cells.
(§3) Water-insoluble compounds were dissolved in Cremophor EL/ethanol/physiological saline (20:20:60: vol.%). Water-soluble substances were dissolved in physiological saline. Cremophor EL is a surfactant on the basis of polyethoxylated castor oil. All test compounds were administered introperitoneally. The nitrosoureas were applied at approximately equitoxic doses corresponding to about 80% of the acute LD50 values observed in healthy rats of the same strain over a 28-day observation period.
In all treated animals and at all doses tested the mean weight gain was lower than in the controls. Table 3 gives the mean animal weights measured 50 and 100 days after tumor transplantation in experiments 1 to 5.

[3] = tested on: Yoshida sarcoma; format: in vivo, rat (male Sprague-Dawley rats); conditions: for increase in tumor-free animals (cures) above controls: BCNU, MeCCNU 45, dimethylmorpholine-CNU 45, piperidino-CNU 15, picolyl-3-CNU.HCl 25 mg/kg; for effect on survival time / life expectancy (in words): experiments 1-4, MeCCNU 45, morpholino-CNU 28 (exp. 3 and 5), dimethylmorpholine-CNU 45, piperidino-CNU 15, picolyl-3-CNU 25, picolyl-3-CNU.HCl 25 mg/kg
Protocol: The chemotherapeutic activity of nitrosoureas was compared in antitumor tests using Yoshida sarcoma ascited cells implanted into the wall of the descending colon in Sprague-Dawley rats.
as §1, §2, §3
Each experiment involved an untreated control group and a varying number of treated groups. Individual survival times were counted as days after tumor inoculation. At the time of death a record of whether an animal was tumor-free or not was made. All animals alive 120 days after tumor inoculation were killed. Animals that according to macroscopic examination had no tumor at the end of the experiment were considered as cured. Since in a number of control rats also no tumors occurred after 120 days the differences in cures between controls and treated animals rather than absolute numbers are reported. Differences in survival were evaluated statistically by individual comparisons between treated rats and controls using a nonparametric log-rank test (Kalbfleisch and Prentice, The statistical analysis of failure time data, Wiley, New York, 1979). Numerical evaluation was performed using a computerized system.

[4] = tested on: Yoshida sarcoma; conditions: previous experiments; i.p.; cited from earlier work
[5] = tested on: rat leukemia L 5222; assay: Chemotherapeutic activity against rat Leukemia L5222; format: in vivo, rat (BD IX rats)
Protocol: Chemotherapeutic activity of methylformylamino-CNU against rat Leukemia L5222 (CNU=chloroethyl-nitroso-urea)
The compound to be tested was solved in Chremophor EL/ethanol/physiological saline and a single dose was administered intraperitoneally into tumor inoculated BD IX rats. The experiment involved an untreated control group and a number of treated groups. The doses used and the effects of the praeterminal treatment are summarized in the following Table from which the cures (animals free of tumor after 120 days) and the increase in life span (ILS, expressed as percentage of survival of the treated test group to the untreated control group) are evident.
Considering the fact that the true measure of the effectiveness of a drug against a neoplastic desease is the ability of the drug to kill the neoplastic cells at dosages that are not toxic to the host animal and that a quantitative evaluation of drug action is usually obtained by using the L1210 leucemia system in mice, it will be realized that in this test the tumor cells are injected into the peritoneal cavity of a mouse which thereafter is treated with the drug to be tested at a very early time after the inoculation of the tumor, i.e. at the first or second day after tumor inoculation. Thus such screening is done under very favourable test conditions for the drug. Contrary thereto the administration of the drug to be tested is performed relatively late in the case of the rat leucemia L5222, i.e. at the 8th day after tumor inoculation. It must, therefore, be taken that at that time tumor cells have colonized the cerebral region, i.e. the meninges, so that cures can only be obtained if the drug has an activity high enough to kill the leucemia cells in the cerebral region in a praeterminal state. Thus by far more severe test conditions are involved when treating rat leucemia L5222 or type Yoshida sarcoma which is a tumor model and which are hard to influence by known drugs.

[6] = Experiment 2, CP 70, picolyl-3-CNU 25, picolyl-3-CNU.HCl 25 mg/kg
[7] = Experiment 2, CP 70, picolyl-3-CNU 25, picolyl-3-CNU.HCl 25 mg/kg, 30 initial animals each
[8] = Experiment 2, i.p. day 8, CP 70, picolyl-3-CNU 25, picolyl-3-CNU.HCl 25 mg/kg
[9] = Experiment 1, CP 70, BCNU 25, MeCCNU 45 mg/kg
[10] = Experiment 1, CP 70, BCNU 25, MeCCNU 45 mg/kg, initial animals CP 30, BCNU 30, MeCCNU 29
[11] = Experiment 1, i.p. day 8, CP 70, BCNU 25, MeCCNU 45 mg/kg
[12] = single i.p. dose printed 279 mg/kg
[13] = Experiment 5, CP 70, picolyl-3-CNU.HCl 25, morpholino-CNU 28, piperidino-CNU 15 mg/kg
[14] = Experiment 5, CP 70, picolyl-3-CNU.HCl 25, morpholino-CNU 28, piperidino-CNU 15 mg/kg, 15 initial animals (picolyl-3-CNU.HCl 14)
[15] = Experiment 5, i.p. day 8, CP 70, picolyl-3-CNU.HCl 25, morpholino-CNU 28, piperidino-CNU 15 mg/kg
[16] = Experiment 3, CP 70, morpholino-CNU 28, piperidino-CNU 15 mg/kg
[17] = Experiment 3, CP 70, morpholino-CNU 28, piperidino-CNU 15 mg/kg, 30 initial animals each
[18] = Experiment 5, CP 70, piperidino-CNU 15 mg/kg

## O=NN(CCCl)C(=O)NCc1cccnc1 [Picolyl-3-CNU, 1-(2-chloroethyl)-1-nitroso-3-(methylene-3-pyridyl)-urea]
[1]
  water solubility (in words): water-insoluble
[2]
  Mean animal weight on day 50: 250 g
  Mean animal weight on day 100: 250 g
[3]; [6]
  % M (median survival time, untreated control = 100): 130%
  D1-120 = difference (%) between tf1-120 of treated and untreated animals: 1%
  D120 = difference (%) between tf120 of treated and untreated animals: -2%
  tf1-120 (%) (tf120 + animals dying of toxicity): 23%
  tf120 (%) (animals surviving day 120 without tumor): 20%
[3]; [7]
  tf1-120, No. (tf120 + animals dying of toxicity): 7
  tf120, No. (animals surviving day 120 without tumor): 6
[3]; [8]
  M = median survival time: 28 days

## O=NN(CCCl)C(=O)NCCCl [BCNU, 1,3-bis-(2-chloroethyl)-1-nitrosourea]
[4]
  activity against Yoshida sarcoma, shown previously (in words): active
[2]
  Mean animal weight on day 50: 270 g
  Mean animal weight on day 100: 300 g
[3]; 120 days
  tumor-free animals at the end of the experiment (in words): increased the rate of tumor-free animals alive at the end of the experiment
[3]; 120 days, CP (exp. 1-3)
  increase in tumor-free animals (cures) above controls: 18%
[3]; [9]
  D1-120 = difference (%) between tf1-120 of treated and untreated animals: 22%
  D120 = difference (%) between tf120 of treated and untreated animals: 18%
  tf1-120 (%) (tf120 + animals dying of toxicity): 47%
  tf120 (%) (animals surviving day 120 without tumor): 43%
[3]; [10]
  tf1-120, No. (tf120 + animals dying of toxicity): 14
  tf120, No. (animals surviving day 120 without tumor): 13
[3]; [11]
  % M (median survival time, untreated control = 100): 160%
  M = median survival time: 74 days

## CN(C=O)NC(=O)N(CCCl)N=O [methylformylamino-CNU, 1-(2-chloroethyl)-1-nitroso-3-(methyl-formyl-amino)urea]
[5]; rat, in vivo
  effectiveness in rat leukemia L 5222 (in words): active
[5]; single i.p. dose 7 mg/kg
  ILS (increase in life span): 70%
[5]; single i.p. dose 7 mg/kg, 7 mg/kg
  cures (animals free of tumor after 120 days): 3/8 and three cured animals out of eight
[5]; single i.p. dose 70 mg/kg
  ILS (increase in life span): 610%
  cures (animals free of tumor after 120 days): 3/9
[5]; single i.p. dose 88 mg/kg
  ILS (increase in life span): 230%
  cures (animals free of tumor after 120 days): 2/6
[5]; single i.p. dose 111 mg/kg
  ILS (increase in life span): 250%
[5]; single i.p. dose 176 mg/kg
  ILS (increase in life span): 40%
[5]; single i.p. dose 11,1 mg/kg
  ILS (increase in life span): 100%
  cures (animals free of tumor after 120 days): 2/8
[5]; single i.p. dose 17,6 mg/kg
  ILS (increase in life span): 150%
  cures (animals free of tumor after 120 days): 2/8
[5]; single i.p. dose 44,2 mg/kg
  ILS (increase in life span): 150%
  cures (animals free of tumor after 120 days): 2/8
[5]; [12]
  ILS (increase in life span): 175%
  cures (animals free of tumor after 120 days): 3/8

## O=NN(CCCl)C(=O)NCc1cccnc1 [Picolyl-3-CNU.HCl, [1-(2-chloroethyl)-1-nitroso-3-(methylene-3-pyridilium)-ureido]-chloride]
[2]
  Mean animal weight on day 50: 250 g
  Mean animal weight on day 100: 260 g
[3]; 120 days, CP (exp. 1-3)
  increase in tumor-free animals (cures) above controls: 15%
[3]; [6]
  % M (median survival time, untreated control = 100): 125%
  D1-120 = difference (%) between tf1-120 of treated and untreated animals: 18%
  D120 = difference (%) between tf120 of treated and untreated animals: 15%
  tf1-120 (%) (tf120 + animals dying of toxicity): 40%
  tf120 (%) (animals surviving day 120 without tumor): 37%
[3]; [7]
  tf1-120, No. (tf120 + animals dying of toxicity): 12
  tf120, No. (animals surviving day 120 without tumor): 11
[3]; [8]
  M = median survival time: 27 days
[3]; [13]
  % M (median survival time, untreated control = 100): 150%
  D1-120 = difference (%) between tf1-120 of treated and untreated animals: 0%
  D120 = difference (%) between tf120 of treated and untreated animals: 0%
[3]; [14]
  tf1-120, No. (tf120 + animals dying of toxicity): 0
  tf120, No. (animals surviving day 120 without tumor): 0
[3]; [15]
  M = median survival time: 15 days
[3]
  effect on survival time / life expectancy (in words): without resulting in a significant increase in survival

## O=P1(N(CCCl)CCCl)NCCCO1 (stereo not drawn) [CP, 2-bis-(β-chloroethyl)-amino-oxo-2-oxa-2-λ^5-phospha-3-aza-cyclohexane]
[4]
  activity against Yoshida sarcoma, shown previously (in words): responds favorably
[2]
  Mean animal weight on day 50: 300 to 330 g
  Mean animal weight on day 100: 300 to 370 g
[3]; [9]
  D1-120 = difference (%) between tf1-120 of treated and untreated animals: 38%
  D120 = difference (%) between tf120 of treated and untreated animals: 25%
  tf1-120 (%) (tf120 + animals dying of toxicity): 63%
  tf120 (%) (animals surviving day 120 without tumor): 50%
[3]; [10]
  tf1-120, No. (tf120 + animals dying of toxicity): 21
  tf120, No. (animals surviving day 120 without tumor): 15
[3]; [11]
  % M (median survival time, untreated control = 100): > 260%
  M = median survival time: > 120 days
[3]; [6]
  % M (median survival time, untreated control = 100): > 545%
  D1-120 = difference (%) between tf1-120 of treated and untreated animals: 58%
  D120 = difference (%) between tf120 of treated and untreated animals: 35%
  tf1-120 (%) (tf120 + animals dying of toxicity): 80%
  tf120 (%) (animals surviving day 120 without tumor): 57%
[3]; [7]
  tf1-120, No. (tf120 + animals dying of toxicity): 24
  tf120, No. (animals surviving day 120 without tumor): 17
[3]; [8]
  M = median survival time: > 120 days
[3]; [16]
  % M (median survival time, untreated control = 100): > 686%
  D1-120 = difference (%) between tf1-120 of treated and untreated animals: 48%
  D120 = difference (%) between tf120 of treated and untreated animals: 38%
  tf1-120 (%) (tf120 + animals dying of toxicity): 77%
  tf120 (%) (animals surviving day 120 without tumor): 67%
[3]; [17]
  tf1-120, No. (tf120 + animals dying of toxicity): 23
  tf120, No. (animals surviving day 120 without tumor): 20
[3]; Experiment 3, i.p. day 8, CP 70, morpholino-CNU 28, piperidino-CNU 15 mg/kg
  M = median survival time: > 120 days
[3]; [13]
  % M (median survival time, untreated control = 100): 400%
  D1-120 = difference (%) between tf1-120 of treated and untreated animals: 7%
  D120 = difference (%) between tf120 of treated and untreated animals: 7%
[3]; [14]
  tf1-120, No. (tf120 + animals dying of toxicity): 1
  tf120, No. (animals surviving day 120 without tumor): 1
[3]; Experiment 5, CP 70, picolyl-3-CNU.HCl 25, morpholino-CNU 28, piperidino-CNU 15 mg/kg, 15 initial animals (picolyl-3-CNU.HCl 14), listed as cyclophosphamide
  tf120, No. (animals surviving day 120 without tumor): 1/15
[3]; [18]
  tf1-120 (%) (tf120 + animals dying of toxicity): 7%
  tf120 (%) (animals surviving day 120 without tumor): 7%
[3]; [15]
  M = median survival time: 40 days
[3]; after 120 days, experiments other than experiment 5, listed as cyclophosphamide
  rate of tumor-free animals treated with cyclophosphamide in the other experiments: 50% and 57% and 67%
[3]; compared with controls, CP (exp. 1-3), dimethylmorpholine-CNU 45 mg/kg
  p for improvement of survival time / life expectancy: < 0,05
[3]
  effect on survival time / life expectancy (in words): improved significantly
[3]; i.p.
  chemotherapeutic activity against Yoshida sarcoma in the colon wall (in words): most active compound
